Test results from PubChem BioAssay (NCI).
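How tested: cells in 96-well plates exposed to compound for 48 hours at five concentrations. Here, GI50 denotes the concentration required for 50% inhibition of growth. The concentration for full growth arrest is given as TGI.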

Experiments:
Assay in all cases: NCI anticancer screen, dose series, 48 h
EKVX NSCLC = system: EKVX NSCLC
SK-MEL-2 melanoma = system: SK-MEL-2 melanoma
HS 578T breast = system: HS 578T breast
CCRF-CEM leukemia = system: CCRF-CEM leukemia
A498 renal = system: A498 renal
NCI-H522 lung = system: NCI-H522 lung
RPMI-8226 leukemia = system: RPMI-8226 leukemia
ACHN renal = system: ACHN renal
A549 NSCLC = system: A549 NSCLC
OVCAR-3 ovarian = system: OVCAR-3 ovarian

| SMILES | TGI (EKVX NSCLC) | TGI (SK-MEL-2 melanoma) | TGI (HS 578T breast) | TGI (CCRF-CEM leukemia) | TGI (A498 renal) | TGI (NCI-H522 lung) | TGI (RPMI-8226 leukemia) | TGI (ACHN renal) | TGI (A549 NSCLC) | TGI (OVCAR-3 ovarian) | GI50 (SK-MEL-2 melanoma) | GI50 (CCRF-CEM leukemia) | GI50 (A498 renal) | GI50 (NCI-H522 lung) | GI50 (OVCAR-3 ovarian) |
| --- | --- | --- | --- | --- | --- | --- | --- | --- | --- | --- | --- | --- | --- | --- | --- |
| Nc1nc(N)c2c(n1)NC(c1ccccc1)CC(/C=C/c1ccc(Cl)cc1)=N2 (stereo unspecified) | 17.3 µM | 42.7 µM | 9.94 µM | 50.4 µM | 32.9 µM | 5.32 µM | 12.7 µM | 25.5 µM | 60.8 µM | 23.4 µM | – | – | – | – | – |
| CN(CCCNC(=O)c1cn(C)c2c1ccc1cc(Cl)c(Cl)cc12)CCCNC(=O)c1cn(C)c2c1ccc1cc(Cl)c(Cl)cc12 | 31.5 µM | 31.5 µM | 27.6 µM | 38.7 µM | 28 µM | 31.5 µM | – | 27.2 µM | 32.4 µM | > 54.9 µM | – | – | – | – | – |
| CC(Sc1ccccc1)C(CO)(CO)[N+](=O)[O-] (stereo unspecified) | 34.1 µM | 54 µM | – | 7.51 µM | – | 26.3 µM | 49.2 µM | 30.6 µM | 34.1 µM | 29.4 µM | – | – | – | – | – |
| O=S(=O)(/N=C(\NO)Nc1ccc(Cl)cc1)c1ccc(S(=O)(=O)c2ccccc2)s1 | 51.5 µM | 37.4 µM | 96.9 µM | 51.6 µM | 41.8 µM | 37.7 µM | 35.8 µM | 89.3 µM | > 100 µM | 55.9 µM | – | – | – | – | – |
| CN(C)CCn1c(=O)c2ccc3c4c(nn3CCN(C)C)c3cc(N)ccc3n(c1=O)c24 | 0.237 µM | 0.089 µM | 1.03 µM | – | 0.364 µM | 0.27 µM | 60.7 µM | 0.428 µM | 0.114 µM | 0.164 µM | – | – | – | – | – |
| N[C@H]1CCN(c2c(F)cc3c(=O)c(C(=O)O)cn4c3c2Oc2cc3c(ccc5ccccc53)cc2-4)C1 | 7.21 µM | 43.5 µM | – | – | > 100 µM | > 100 µM | 4 µM | 8.06 µM | > 100 µM | > 100 µM | – | – | – | – | – |
| O=CN1CCN(C(=O)c2cc(Cl)cc(Cl)c2)C1=S | 32.3 µM | 33 µM | 71.4 µM | 25.5 µM | 29.6 µM | 15.4 µM | 5.64 µM | 31.7 µM | 39.8 µM | 27.9 µM | – | – | – | – | – |
| O=[N+]([O-])c1ccc2c(c1)c(N=NC(=S)NC1CCCCC1)c(O)n2CN1CCOCC1 | 14.1 µM | 25.9 µM | 45.8 µM | 2.75 µM | 17.5 µM | 30.3 µM | 52.6 µM | 18 µM | 15.7 µM | 20.4 µM | – | – | – | – | – |
| C/C(=N\NC(=O)c1cccnc1)c1cccc(/C(C)=N/NC(=O)c2cccnc2)n1 | > 100 µM | 7.02 µM | – | > 100 µM | 68.1 µM | 6.76 µM | – | 12.2 µM | 34.7 µM | 47.3 µM | 2.33 µM | 3.49 µM | 4.86 µM | 1.58 µM | 2.05 µM |
| CS(=O)(=O)c1nc(-c2cc3c(c(S(C)(=O)=O)n2)CCCC3)cc2c1CCCC2 | > 100 µM | > 100 µM | > 33 µM | > 100 µM | > 100 µM | > 77.6 µM | > 100 µM | > 100 µM | > 100 µM | > 100 µM | – | – | – | – | – |
| CC(=O)N(C)c1ccc2c(ccc[n+]2[O-])c1[N+](=O)[O-] | > 100 µM | > 100 µM | – | > 100 µM | > 100 µM | – | > 100 µM | > 100 µM | > 100 µM | > 100 µM | – | – | – | – | – |
| COc1ccc(N=c2ssc(C(=S)Nc3ccc(OC)cc3)c2S)cc1 | > 100 µM | > 100 µM | > 100 µM | > 100 µM | > 100 µM | > 100 µM | > 100 µM | > 100 µM | > 100 µM | > 100 µM | – | – | – | – | – |
| CCC(C)C1NC(=O)C2CCCN2C(=O)C(CC2CO2)OC(=O)CCNC(=O)C(C)N(C)C(=O)C(C(C)C)N(C)C1=O (stereo unspecified) | > 100 µM | 0.0341 µM | > 100 µM | – | > 100 µM | > 100 µM | – | > 100 µM | > 33.6 µM | > 100 µM | – | – | – | – | – |
| C[C@]12CC[C@@H]3c4ccccc4CC[C@H]3[C@@H]1CC[C@@H]2O | > 100 µM | – | – | > 100 µM | – | > 100 µM | > 100 µM | > 100 µM | > 100 µM | > 100 µM | – | – | – | – | – |
| CN1C2CCC1C(C(O)c1ccccc1[N+](=O)[O-])C(=O)C2 (stereo unspecified) | > 100 µM | > 100 µM | > 100 µM | > 100 µM | > 100 µM | > 100 µM | > 100 µM | > 100 µM | > 100 µM | > 100 µM | – | – | – | – | – |
| Nc1ccc2c(c1)C(=O)N(O)C2=O | > 100 µM | – | – | > 100 µM | > 100 µM | – | – | > 100 µM | > 100 µM | > 100 µM | – | – | – | – | – |
